Measured values as given in ChEMBL document CHEMBL1201862, “PubChem BioAssay data set” (2004).
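Step 1: Grow cells in 96-well plates. Step 2: Expose to compound for 48 hours at 5 concentrations. Step 3: Interpolate endpoints linearly; if unreached, use highest concentration. GI50 marks 50% less growth.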 Calls of active or inactive are those of the source. Rule as the data show it: active = GI50 up to about 1.1 µM and inactive = higher.

What was measured:
Assay in all cases: NCI-60 cell line screen, 48 h
[1] = test system: A498
[2] = test system: DU-145
[3] = test system: NCI-H226
[4] = test system: SR
[5] = test system: NCI/ADR-RES
[6] = test system: SF-295
[7] = test system: EKVX
[8] = test system: PC-3
[9] = test system: NCI-H460
[10] = test system: SNB-19
[11] = test system: KM12
[12] = test system: 786-0
[13] = test system: HCT-15
[14] = test system: OVCAR-8
[15] = test system: UACC-257
[16] = test system: BT-549
[17] = test system: HL-60
[18] = test system: LOX IMVI
[19] = test system: MOLT-4
[20] = test system: MDA-N
[21] = test system: NCI-H522
[22] = test system: A549
[23] = test system: Hs-578T
[24] = test system: RPMI-8226
[25] = test system: SF-268
[26] = test system: CCRF-CEM
[27] = test system: SK-MEL-5
[28] = test system: MDA-MB-435
[29] = test system: OVCAR-5
[30] = test system: TK-10
[31] = test system: SN12C
[32] = test system: T47D
[33] = test system: CAKI-1
[34] = test system: IGROV-1
[35] = test system: SW-620
[36] = test system: HT-29
[37] = test system: ACHN
[38] = test system: K562
[39] = test system: NCI-H23
[40] = test system: SK-MEL-28
[41] = test system: HCC 2998
[42] = test system: RXF 393
[43] = test system: UACC-62
[44] = test system: SK-OV-3
[45] = test system: MDA-MB-231
[46] = test system: OVCAR-3
[47] = test system: MCF7
[48] = test system: OVCAR-4
[49] = test system: U-251
[50] = test system: COLO 205
[51] = test system: M14
[52] = test system: HCT-116
[53] = test system: Malme-3M
[54] = test system: SK-MEL-2
[55] = test system: HOP-62
[56] = test system: SF-539
[57] = test system: HOP-92
[58] = test system: UO-31
[59] = test system: SNB-75

Measured: GI50

C[n+]1ccccc1/C=C/c1ccc2c(c1)OCO2
inactive: [1] > 10 µM | [2] > 10 µM | [3] > 10 µM | [4] > 10 µM | [5] > 10 µM | [6] > 10 µM | [7] > 10 µM | [8] > 10 µM | [9] > 10 µM | [10] > 10 µM | [11] > 10 µM | [12] > 10 µM | [14] > 10 µM | [15] > 10 µM | [16] > 10 µM | [17] > 10 µM | [18] > 10 µM | [19] > 10 µM | [20] > 10 µM | [21] > 10 µM | [22] 4.59 µM | [23] > 10 µM | [24] > 10 µM | [25] > 10 µM | [26] > 10 µM | [27] > 10 µM | [28] > 10 µM | [29] > 10 µM | [30] > 10 µM | [31] > 10 µM | [32] > 10 µM | [33] > 10 µM | [34] > 10 µM | [35] > 10 µM | [36] > 10 µM | [37] > 10 µM | [38] > 10 µM | [39] > 10 µM | [40] > 10 µM | [41] > 10 µM | [42] > 10 µM | [43] > 10 µM | [44] > 10 µM | [45] > 10 µM | [46] > 10 µM | [47] > 10 µM | [48] > 10 µM | [49] > 10 µM | [50] 4.55 µM | [51] > 10 µM | [52] > 10 µM | [53] > 10 µM | [54] > 10 µM | [55] > 10 µM | [56] > 10 µM
> 10 µM: [13]

O=C1N=C2SC=C(NC(=S)Nc3ccccc3)N2NC12c1ccccc1-c1ccccc12
> 10 µM: [13]
inactive: [57] > 10 µM | [2] > 10 µM | [3] > 10 µM | [4] > 10 µM | [5] > 10 µM | [6] > 10 µM | [7] 9.25 µM | [8] > 10 µM | [9] > 10 µM | [10] > 10 µM | [11] > 10 µM | [12] > 10 µM | [58] 8.67 µM | [14] > 10 µM | [15] > 10 µM | [16] > 10 µM | [17] > 10 µM | [18] > 10 µM | [19] > 10 µM | [20] > 10 µM | [21] > 10 µM | [22] > 10 µM | [23] > 10 µM | [24] > 10 µM | [25] > 10 µM | [26] > 10 µM | [27] > 10 µM | [28] > 10 µM | [29] > 10 µM | [30] > 10 µM | [31] > 10 µM | [32] 5.7 µM | [33] > 10 µM | [34] > 10 µM | [35] > 10 µM | [36] > 10 µM | [37] 9.4 µM | [38] > 10 µM | [39] > 10 µM | [40] > 10 µM | [41] > 10 µM | [42] > 10 µM | [59] > 10 µM | [43] > 10 µM | [44] > 10 µM | [45] > 10 µM | [47] > 10 µM | [48] > 10 µM | [50] > 10 µM | [51] > 10 µM | [52] > 10 µM | [53] > 10 µM | [55] > 10 µM | [56] > 10 µM

CCOC(=O)C1=CC(C)(C(=O)OCC)Nc2c(nc(OC)n(C)c2=O)N1 (stereo not drawn)
inactive: [1] > 10 µM | [57] > 10 µM | [2] > 10 µM | [3] > 10 µM | [5] > 10 µM | [6] > 10 µM | [7] > 10 µM | [8] > 10 µM | [9] > 10 µM | [10] > 10 µM | [11] > 10 µM | [12] > 10 µM | [58] > 10 µM | [14] > 10 µM | [15] > 10 µM | [16] > 10 µM | [18] > 10 µM | [19] > 10 µM | [20] > 10 µM | [21] > 10 µM | [22] > 10 µM | [23] > 10 µM | [24] > 10 µM | [25] > 10 µM | [26] > 10 µM | [27] > 10 µM | [28] > 10 µM | [29] > 10 µM | [30] > 10 µM | [31] > 10 µM | [32] > 10 µM | [33] > 10 µM | [34] > 10 µM | [35] > 10 µM | [36] > 10 µM | [37] > 10 µM | [38] > 10 µM | [39] > 10 µM | [40] > 10 µM | [41] > 10 µM | [42] > 10 µM | [59] > 10 µM | [44] > 10 µM | [45] > 10 µM | [46] > 10 µM | [47] > 10 µM | [48] > 10 µM | [49] > 10 µM | [50] > 10 µM | [51] > 10 µM | [52] > 10 µM | [53] > 10 µM | [54] > 10 µM | [55] > 10 µM | [56] > 10 µM
> 10 µM: [13]

Cc1nc(-c2ccc([N+](=O)[O-])cc2)cn2c1nc1ccccc12
inactive: [1] > 100 µM | [57] 70.5 µM | [2] > 100 µM | [3] > 100 µM | [4] > 100 µM | [5] > 100 µM | [6] 76.9 µM | [7] > 100 µM | [8] > 100 µM | [9] > 100 µM | [10] 65.8 µM | [11] > 100 µM | [12] 71 µM | [58] > 100 µM | [14] > 100 µM | [15] > 100 µM | [16] > 100 µM | [17] > 100 µM | [18] > 100 µM | [19] > 100 µM | [20] > 100 µM | [22] > 100 µM | [23] > 100 µM | [24] > 100 µM | [25] > 100 µM | [26] > 100 µM | [28] > 100 µM | [29] > 100 µM | [30] 97.5 µM | [31] > 100 µM | [32] 8.81 µM | [33] > 100 µM | [34] > 100 µM | [35] > 100 µM | [36] > 100 µM | [38] > 100 µM | [39] > 100 µM | [40] > 100 µM | [42] 41.6 µM | [59] 24.6 µM | [43] 15.9 µM | [44] 18.9 µM | [45] > 100 µM | [46] > 100 µM | [47] 58.3 µM | [48] > 100 µM | [49] 40.2 µM | [50] > 100 µM | [51] 70.3 µM | [52] > 100 µM | [53] > 100 µM | [54] 31.1 µM | [55] 36.5 µM | [56] > 100 µM
> 100 µM: [13]

CC1CN=C(Nc2cccc(F)c2)S1 (stereo not drawn)
> 100 µM: [13]
inactive: [57] > 100 µM | [2] > 100 µM | [3] > 100 µM | [4] 7.87 µM | [5] > 100 µM | [6] > 100 µM | [7] > 100 µM | [8] > 100 µM | [10] > 100 µM | [11] > 100 µM | [12] > 100 µM | [58] > 100 µM | [14] > 100 µM | [15] > 100 µM | [16] > 100 µM | [17] > 100 µM | [18] > 100 µM | [20] > 100 µM | [21] > 100 µM | [22] > 100 µM | [23] > 100 µM | [24] > 100 µM | [25] > 100 µM | [26] 91 µM | [27] > 100 µM | [28] > 100 µM | [29] > 100 µM | [30] > 100 µM | [31] > 100 µM | [32] > 100 µM | [33] > 100 µM | [34] > 100 µM | [35] > 100 µM | [36] > 100 µM | [37] > 100 µM | [38] > 100 µM | [39] > 100 µM | [40] > 100 µM | [41] > 100 µM | [42] > 100 µM | [59] > 100 µM | [43] > 100 µM | [44] > 100 µM | [45] 3.99 µM | [46] > 100 µM | [47] > 100 µM | [48] > 100 µM | [49] > 100 µM | [50] > 100 µM | [51] > 100 µM | [52] > 100 µM | [53] > 100 µM | [54] > 100 µM | [55] > 100 µM | [56] > 100 µM
